Reference: PubChem BioAssay (NCI)
Where “and” joins values, the source holds several entries; their conditions need not be identical. Equal values may be shown once.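 Interpolation was linear, between the two tested concentrations surrounding the appropriate level; five concentrations were tested over 48 hours in 96-well plates. GI50 is the concentration that inhibits growth by half. TGI is the concentration that stops growth completely.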

Assays:
Assay in all cases: DTP human tumour cell line panel, 48 h
[1] = system: SK-OV-3 ovarian
[2] = system: SK-MEL-28 melanoma
[3] = system: SN12C renal
[4] = system: OVCAR-5 ovarian
[5] = system: NCI-H23 lung
[6] = system: 786-0 renal
[7] = system: HCT-15 colon
[8] = system: SR leukemia
[9] = system: MDA-MB-231 breast
[10] = system: HS 578T breast

In the case of `O=C(Nc1ccc(Cl)c(Cl)c1)C1C(=O)N(c2ccc(Cl)c(Cl)c2)C(=O)/C1=N\O` (stereo not given), the TGI [1] is reported as > 100 µM, the TGI [2] is reported as 82.8 µM and the TGI [3] is reported as > 100 µM. For the same compound, the TGI [4] was > 100 µM, the TGI [5] was > 100 µM and the TGI [6] was > 100 µM. For the same compound, the TGI [7] was > 100 µM.

For `c1ccc2c(c1)[O][Sn][O]2`, the GI50 [1] was > 150 µg/mL, the TGI [1] was > 150 µg/mL and the GI50 [2] was 81.8 µg/mL. The TGI [2] was > 150 µg/mL, the GI50 [3] was 41.8 µg/mL and the TGI [3] was > 150 µg/mL. The GI50 [4] was > 150 µg/mL, the TGI [4] was > 150 µg/mL and the GI50 [5] was 21.3 µg/mL. For the same compound, the TGI [5] was 113 µg/mL, the GI50 [6] was 23.6 µg/mL and the TGI [6] was > 150 µg/mL. For the same compound, the GI50 [7] was 20.6 µg/mL and the TGI [7] was > 150 µg/mL.

In the case of `Cc1ccc(-c2nc(C(Cl)Cl)nc3cc(C)nn23)cc1`, the GI50 [8] is reported as 0.342 µM, the TGI [8] is reported as > 100 µM and the GI50 [1] is reported as 2.28 µM. The TGI [1] was 8.62 µM, the GI50 [3] was 5.88 µM and the TGI [3] was > 100 µM. For the same compound, the GI50 [4] was 2.22 µM, the TGI [4] was 6.72 µM and the GI50 [9] was 2.34 µM. The TGI [9] was > 100 µM, the GI50 [5] was 0.742 µM and the TGI [5] was 2.75 µM. For the same compound, the GI50 [6] was > 100 µM, the TGI [6] was > 100 µM and the GI50 [7] was 1.24 µM. For the same compound, the TGI [7] was 4.61 µM.

Compound `COc1ncc2cc1NS(=O)(=O)c1cccc(c1)C(=O)NCC1=CC=C(S1)c1ncnc3c1SC2=C3C` has a GI50 [10] of 0.0247 µM, a TGI [10] of 0.355 µM and a GI50 [1] of 0.378 µM. The TGI [1] was 4.07 µM, the GI50 [3] was 0.395 µM and the TGI [3] was 18.3 µM. It also gave a GI50 [4] of 0.169 µM, a TGI [4] of 4.02 µM and a GI50 [9] of 0.139 µM. It also gave a TGI [9] of 12.8 µM, a GI50 [6] of 0.31 µM and a TGI [6] of 2.74 µM. The GI50 [7] was 0.254 µM and the TGI [7] was 1.36 µM.

`CC1CCC2c3c([nH]c4ccccc34)C3C(=O)N(c4ccccc4)C(=O)C3C2C1` (stereo not given) was tested, and the GI50 [8] was > 250 µM, the TGI [8] was > 250 µM and the GI50 [1] was 13.2 µM. For the same compound, the TGI [1] was 28.5 µM and 99.6 µM, the TGI [2] was > 250 µM and the TGI [3] was > 250 µM. For the same compound, the GI50 [5] was 30.3 µM, the TGI [5] was > 250 µM and the GI50 [6] was 77.6 µM. The TGI [6] was 40.6 µM and > 250 µM and the TGI [7] was > 250 µM.

With `CCOc1ccc(/C=C2/C(=O)N=C(N)N=C2N)cc1OCC` the TGI [8] was > 100 µM, the TGI [1] was > 100 µM and the TGI [2] was > 100 µM. The TGI [3] was > 100 µM, the TGI [4] was > 100 µM and the TGI [5] was > 100 µM. For the same compound, the TGI [6] was > 100 µM and the TGI [7] was > 100 µM.

`CN(C)CCNC(=O)c1cccc2cc3ccc4ccccc4c3nc12` was tested, and the TGI [8] was 0.147 µM, the TGI [1] was 0.679 µM and the TGI [2] was 0.593 µM. For the same compound, the TGI [3] was 0.818 µM, the TGI [4] was 0.706 µM and the TGI [5] was 0.39 µM. It also gave a TGI [6] of 1.37 µM and a TGI [7] of 0.593 µM.

`O=C1c2ccccc2-c2c1c1ccc([N+](=O)[O-])cc1c(=O)n2CCCCl` was tested, and the GI50 [1] was 63.4 µM, the TGI [1] was > 100 µM and the GI50 [2] was 17 µM. The TGI [2] was > 100 µM, the GI50 [3] was 27.1 µM and the TGI [3] was > 100 µM. The GI50 [4] was > 100 µM, the TGI [4] was > 100 µM and the GI50 [9] was 11.3 µM. For the same compound, the TGI [9] was 57.7 µM, the GI50 [5] was 3.52 µM and the TGI [5] was 54.1 µM. The GI50 [6] was > 100 µM, the TGI [6] was > 100 µM and the GI50 [7] was > 100 µM. The TGI [7] was > 100 µM.

`Nc1c(C(=O)Nc2ccccc2O)[n+]([O-])c2ccccc2[n+]1[O-]` was tested, and the TGI [8] was > 100 µM, the TGI [1] was > 100 µM and the TGI [2] was > 100 µM. The TGI [3] was > 100 µM, the TGI [4] was > 100 µM and the TGI [5] was 84.7 µM. The TGI [6] was > 100 µM and the TGI [7] was > 100 µM.

`CN1CCOCCOCCOc2ccccc2NC(=O)c2nc(cnc2N)-c2ccc(cc2)S1(=O)=O` was tested, and the GI50 [10] was 3.56 µM, the TGI [10] was > 100 µM and the GI50 [1] was 7.12 µM. The TGI [1] was > 100 µM, the GI50 [3] was > 100 µM and the TGI [3] was > 100 µM. For the same compound, the GI50 [4] was > 100 µM, the TGI [4] was > 100 µM and the GI50 [9] was 32.4 µM. The TGI [9] was > 100 µM, the GI50 [6] was 0.0398 µM and the TGI [6] was 23.3 µM.

With `CCOC(=O)C1=CSC2=NC3=C(CCC/C3=C\c3cc(OC)c(OC)c(OC)c3)C(c3cc(OC)c(OC)c(OC)c3)N12` (stereo not given) the GI50 [10] was 2.47 µM, the TGI [10] was > 100 µM and the GI50 [4] was > 100 µM. For the same compound, the TGI [4] was > 100 µM, the GI50 [9] was 3.2 µM and the TGI [9] was > 100 µM. The GI50 [6] was > 100 µM and the TGI [6] was > 100 µM.

With `Cn1cc(NC(=O)c2cc(NC(=O)CCCCCCCC(=O)Nc3cc(C(=O)Nc4cc(C(=O)NCCC(=N)N)n(C)c4)n(C)c3)cn2C)cc1C(=O)NCCC(=N)N` the TGI [8] was 92.7 µM, the TGI [1] was > 100 µM and the TGI [2] was 26.3 µM. The TGI [3] was 41 µM, the TGI [4] was > 100 µM and the TGI [5] was 33.7 µM. The TGI [6] was > 100 µM and the TGI [7] was > 100 µM.

For `O=C(Nc1nc2c(s1)CCc1c-2c(Br)n(Cc2ccccc2)c1Br)c1ccccc1`, the GI50 [8] was 12.1 µM, the TGI [8] was > 100 µM and the GI50 [1] was 3.23 µM. The TGI [1] was 16.3 µM, the GI50 [2] was 4.34 µM and the TGI [2] was 70.7 µM. The GI50 [3] was 10 µM, the TGI [3] was > 100 µM and the GI50 [4] was 47.3 µM. The TGI [4] was > 100 µM, the GI50 [9] was 2.16 µM and the TGI [9] was 32.6 µM. The GI50 [5] was 8.03 µM, the TGI [5] was > 100 µM and the GI50 [6] was 2.73 µM. The TGI [6] was 11.9 µM, the GI50 [7] was 12.4 µM and the TGI [7] was > 100 µM.

`O=c1[nH]c(=O)n(C2CC(O)C(O)C(CO)O2)cc1F` (stereo not given) was tested, and the TGI [1] was > 100 µM, the TGI [2] was > 100 µM and the TGI [3] was > 100 µM. For the same compound, the TGI [4] was > 100 µM, the TGI [5] was > 100 µM and the TGI [6] was > 100 µM. The TGI [7] was > 100 µM.
